# Data published in US20240270821A1, “GIP/GLP1/GCG TRI-RECEPTOR AGONISTS AND USES THEREOF” (priority 2023, published 2024).
# Starred links: 1 amine or outer side, 2 acyl side, 3 side chain; linkers in the order of their positions; H or OH if unused. Non-standard residues stand in square brackets, D forms with d. Groups on a side chain read outwards from the residue. *: point of attachment. C18 diacid = O=C(O)CCCCCCCCCCCCCCCCC(=O)*; γGlu = O=C(O)[C@H](CCC(=O)[*:2])N[*:1]; 4Pal = N[C@@H](Cc1ccncc1)C(=O)O; αMeL = CC(C)C[C@](C)(N)C(=O)O; Orn = NCCC[C@H](N)C(=O)O; AEEA = NCCOCCOCC(=O)O; Aib = CC(C)(N)C(=O)O
# Columns and labels:
# Type in all cases: cell-based
# [1] = target: human GcgR (Homo sapiens, UniProt P47871); experiment: Functional cAMP activity in the presence of 1% HSA; details: read-out: cAMP Rel EC50, hGcgR
# [2] = target: T1, hGIPR (Homo sapiens, UniProt P48546); experiment: Functional cAMP activation in the presence of 0.1% casein (no HSA); details: in the presence of 0.1% casein (no HSA); geometric mean; read-out: Relative cAMP EC50, hGIPR;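 note: intracellular cAMP rise after 30 min at 37 °C read by HTRF against a standard curve, scaled between buffer alone (0%) and top control ligand concentration (100%), four-parameter fit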
# T1 sequence (P48546 22-466): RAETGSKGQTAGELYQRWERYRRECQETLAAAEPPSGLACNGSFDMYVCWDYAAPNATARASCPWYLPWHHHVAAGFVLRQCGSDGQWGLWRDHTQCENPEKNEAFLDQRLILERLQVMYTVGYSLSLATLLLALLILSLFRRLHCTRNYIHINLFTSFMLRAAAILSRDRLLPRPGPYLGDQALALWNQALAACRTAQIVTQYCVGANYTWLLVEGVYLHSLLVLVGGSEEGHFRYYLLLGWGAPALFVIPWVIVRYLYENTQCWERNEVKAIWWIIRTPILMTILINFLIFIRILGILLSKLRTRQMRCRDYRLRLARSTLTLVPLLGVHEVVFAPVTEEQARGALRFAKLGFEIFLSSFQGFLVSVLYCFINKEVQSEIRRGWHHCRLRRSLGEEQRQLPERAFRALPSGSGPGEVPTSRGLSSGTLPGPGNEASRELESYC
# [3] = target: T2, hGLP-1R (Homo sapiens, UniProt P43220); experiment: as above; details: in the presence of 0.1% casein (no HSA); geometric mean; read-out: Relative cAMP EC50, hGLP-1R;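 note: intracellular cAMP rise after 30 min at 37 °C read by HTRF, normalized between buffer only (0%) and maximal control ligand (100%), four-parameter variable-slope fit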
# [4] = target: hGcgR (Homo sapiens, UniProt P47871); experiment: as above; details: in the presence of 0.1% casein (no HSA); geometric mean; read-out: Relative cAMP EC50, hGcgR;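 note: intracellular cAMP rise after 30 min at 37 °C, read by HTRF against a cAMP standard curve, scaled from buffer only (0%) to maximal control ligand response (100%)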
# [5] = target: T2, hGLP-1R; experiment: Functional cAMP activity in the presence of 1% HSA; details: read-out: cAMP Rel EC50, hGLP-1R
# [6] = target: T1, hGIPR; experiment: Functional cAMP activity in the presence of 1% HSA; details: read-out: cAMP Rel EC50, hGIPR
# Sequence of hGcgR (P47871 26-477): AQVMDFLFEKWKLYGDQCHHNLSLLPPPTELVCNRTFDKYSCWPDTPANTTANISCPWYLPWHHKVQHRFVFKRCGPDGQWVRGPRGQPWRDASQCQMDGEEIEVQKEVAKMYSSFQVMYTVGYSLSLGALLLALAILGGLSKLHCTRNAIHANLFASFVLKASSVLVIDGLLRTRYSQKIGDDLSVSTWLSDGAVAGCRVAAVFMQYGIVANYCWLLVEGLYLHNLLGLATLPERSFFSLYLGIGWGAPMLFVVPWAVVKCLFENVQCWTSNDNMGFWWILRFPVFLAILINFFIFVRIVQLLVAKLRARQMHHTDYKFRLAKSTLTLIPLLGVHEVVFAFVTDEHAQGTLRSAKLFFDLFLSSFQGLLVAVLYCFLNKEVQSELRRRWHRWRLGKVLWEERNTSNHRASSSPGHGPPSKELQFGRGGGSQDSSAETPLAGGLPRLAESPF
# Sequence of human GcgR (P47871 26-477): as above
# T2 sequence (P43220 24-463): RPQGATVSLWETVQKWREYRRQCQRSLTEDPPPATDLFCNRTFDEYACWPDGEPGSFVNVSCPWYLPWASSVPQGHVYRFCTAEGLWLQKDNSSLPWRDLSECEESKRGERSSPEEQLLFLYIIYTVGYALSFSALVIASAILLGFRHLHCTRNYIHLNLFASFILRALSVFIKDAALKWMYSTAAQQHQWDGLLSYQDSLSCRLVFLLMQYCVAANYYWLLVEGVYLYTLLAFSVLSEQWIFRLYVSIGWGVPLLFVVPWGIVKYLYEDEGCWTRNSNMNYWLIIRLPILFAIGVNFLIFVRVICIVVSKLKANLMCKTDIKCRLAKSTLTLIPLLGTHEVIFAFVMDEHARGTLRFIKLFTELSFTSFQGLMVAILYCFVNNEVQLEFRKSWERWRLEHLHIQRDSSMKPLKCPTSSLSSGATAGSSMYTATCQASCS
Substance,EC50 [1],EC50 [2],EC50 [3],EC50 [4],EC50 [5],EC50 [6]
H-Y[Aib]QGTFTSDFS[Orn][αMeL]LDKK([AEEA-AEEA-γGlu-C18 diacid])AQ[Aib]AFIEWLLEGGHSSGAPPPGGE-NH2 [Example 271],2680 nM,0.152 nM,5 nM,8.51 nM,887 nM,15.7 nM
H-Y[Aib]QGTFTSDFS[Orn][αMeL]LDKK([AEEA-AEEA-γGlu-C18 diacid])AQ[Aib]AFIEYLLE[Aib]GESSGAPPPSGT-NH2 [Example 180],1320 nM,0.14 nM,5.08 nM,2.44 nM,891 nM,24 nM
H-Y[Aib]QGTFTSDFS[Orn][αMeL]LDKK([AEEA-AEEA-γGlu-C18 diacid])AQ[Aib]AFIEYLLE[Aib]GPSSGAPPPEGS-NH2 [Example 194],813 nM,0.212 nM,4.69 nM,4.32 nM,697 nM,19.7 nM
H-Y[Aib]QGTFTSDFS[Orn][αMeL]LDKK([AEEA-AEEA-γGlu-C18 diacid])AQ[Aib]AFIEYLLE[Aib]GPSSGEPPPEGS-NH2 [Example 195],605 nM,0.145 nM,6.13 nM,3.1 nM,829 nM,28.8 nM
H-Y[Aib]QGTFTSDFS[Orn][αMeL]LDKK([AEEA-AEEA-γGlu-C18 diacid])AQ[Aib]AFIEYLLE[dA]GPSSGEPPPSGT-NH2 [Example 156],1520 nM,0.208 nM,3.37 nM,3.62 nM,695 nM,25.8 nM
H-Y[Aib]QGTFTSDFS[Orn][αMeL]LDKK([AEEA-AEEA-γGlu-C18 diacid])AQ[Aib]AFIEYLLE[dA]GPSSG[4Pal]PPPSGH-NH2 [Example 257],1210 nM,0.135 nM,2.66 nM,7.36 nM,388 nM,21 nM
H-Y[Aib]QGTFTSDFS[Orn][αMeL]LDKK([AEEA-AEEA-γGlu-C18 diacid])AQ[Aib]AFIEYLLE[dA]GPSSG[4Pal]PPPSG[4Pal]-NH2 [Example 258],1280 nM,0.154 nM,2.71 nM,7.15 nM,492 nM,23.3 nM
H-Y[Aib]QGTFTSDFS[Orn][αMeL]LDKK([AEEA-γGlu-C18 diacid])AQ[Aib]AFIEWLLEGGESSGEPPPSGE-NH2 [Example 123],1740 nM,0.531 nM,4.82 nM,4.55 nM,1500 nM,94.6 nM
H-Y[Aib]QGTFTSDFS[Orn][αMeL]LDKK([AEEA-γGlu-C18 diacid])AQ[Aib]AFIEWLLEGGHSSGAPPPSGH-NH2 [Example 269],1100 nM,0.288 nM,3.23 nM,7.69 nM,428 nM,21.9 nM
H-Y[Aib]QGTFTSDFS[Orn][αMeL]LDKK([AEEA-γGlu-C18 diacid])AQ[Aib]AFIEWLLEGGHSSGAPPPSGS-NH2 [Example 170],1800 nM,0.401 nM,4.11 nM,5.29 nM,361 nM,43.5 nM
H-Y[Aib]QGTFTSDFS[Orn][αMeL]LDKK([AEEA-γGlu-C18 diacid])AQ[Aib]AFIEWLLEGGHSSGEPPPEGS-NH2 [Example 127],1010 nM,0.312 nM,4.8 nM,4.35 nM,1000 nM,62.9 nM
H-Y[Aib]QGTFTSDFS[Orn][αMeL]LDKK([AEEA-γGlu-C18 diacid])AQ[Aib]AFIEWLLEGGPSSGAPPPEGE-NH2 [Example 120],1540 nM,0.44 nM,4.77 nM,5.85 nM,664 nM,33.4 nM
H-Y[Aib]QGTFTSDFS[Orn][αMeL]LDKK([AEEA-γGlu-C18 diacid])AQ[Aib]AFIEWLLEGGPSSGAPPPEG[4Pal]-NH2 [Example 262],720 nM,0.232 nM,4.39 nM,9.77 nM,400 nM,40.4 nM
H-Y[Aib]QGTFTSDFS[Orn][αMeL]LDKK([AEEA-γGlu-C18 diacid])AQ[Aib]AFIEWLLEGGSSSGAPPPGGT-NH2 [Example 272],1540 nM,0.254 nM,2.62 nM,7.91 nM,486 nM,36.3 nM
H-Y[Aib]QGTFTSDFS[Orn][αMeL]LDKK([AEEA-γGlu-C18 diacid])AQ[Aib]AFIEWLLEGGSSSGAPPPSGH-NH2 [Example 270],1060 nM,0.26 nM,3.2 nM,5 nM,658 nM,36.5 nM
H-Y[Aib]QGTFTSDFS[Orn][αMeL]LDKK([AEEA-γGlu-C18 diacid])AQ[Aib]AFIEYLIE[Aib]SPSSGAPPPSGS-NH2 [Example 804],2310 nM,0.0751 nM,0.915 nM,11.5 nM,161 nM,17.6 nM
H-Y[Aib]QGTFTSDFS[Orn][αMeL]LDKK([AEEA-γGlu-C18 diacid])AQ[Aib]AFIEYLLAGGPSSGAPPPSGE[AEEA]-NH2 [Example 91],1200 nM,0.243 nM,3.39 nM,9.13 nM,356 nM,23.9 nM
H-Y[Aib]QGTFTSDFS[Orn][αMeL]LDKK([AEEA-γGlu-C18 diacid])AQ[Aib]AFIEYLLAGGPSSGAPPPSGSQ-OH [Example 88],915 nM,0.177 nM,3.45 nM,7.48 nM,363 nM,24.7 nM
H-Y[Aib]QGTFTSDFS[Orn][αMeL]LDKK([AEEA-γGlu-C18 diacid])AQ[Aib]AFIEYLLAGGPSSGAPPPSGS[AEEA]-NH2 [Example 89],916 nM,0.167 nM,3.31 nM,11.6 nM,458 nM,19.3 nM
H-Y[Aib]QGTFTSDFS[Orn][αMeL]LDKK([AEEA-γGlu-C18 diacid])AQ[Aib]AFIEYLLAGGPSSGEPPPEGS-NH2 [Example 152],1090 nM,0.259 nM,4.03 nM,6.91 nM,491 nM,23.2 nM
H-Y[Aib]QGTFTSDFS[Orn][αMeL]LDKK([AEEA-γGlu-C18 diacid])AQ[Aib]AFIEYLLEGGESSGAPPPGGS-NH2 [Example 161],902 nM,0.555 nM,5.22 nM,4.83 nM,963 nM,87.3 nM
H-Y[Aib]QGTFTSDFS[Orn][αMeL]LDKK([AEEA-γGlu-C18 diacid])AQ[Aib]AFIEYLLEGGESSGAPPPSGS-NH2 [Example 145],693 nM,0.539 nM,4.26 nM,3.14 nM,1480 nM,108 nM
H-Y[Aib]QGTFTSDFS[Orn][αMeL]LDKK([AEEA-γGlu-C18 diacid])AQ[Aib]AFIEYLLEGGPSSGAPPPEGT-NH2 [Example 160],479 nM,0.354 nM,5.39 nM,4.32 nM,482 nM,44.4 nM
H-Y[Aib]QGTFTSDFS[Orn][αMeL]LDKK([AEEA-γGlu-C18 diacid])AQ[Aib]AFIEYLLEGGPSSGAPPPGGE-NH2 [Example 63],709 nM,0.255 nM,4.78 nM,4.1 nM,348 nM,40.4 nM
H-Y[Aib]QGTFTSDFS[Orn][αMeL]LDKK([AEEA-γGlu-C18 diacid])AQ[Aib]AFIEYLLEGGPSSGAPPPGGQ-NH2 [Example 159],475 nM,0.343 nM,4.15 nM,6.89 nM,588 nM,49.7 nM
H-Y[Aib]QGTFTSDFS[Orn][αMeL]LDKK([AEEA-γGlu-C18 diacid])AQ[Aib]AFIEYLLEGGPSSGAPPPGGSE-NH2 [Example 65],808 nM,0.739 nM,4.21 nM,6.49 nM,462 nM,30.2 nM
H-Y[Aib]QGTFTSDFS[Orn][αMeL]LDKK([AEEA-γGlu-C18 diacid])AQ[Aib]AFIEYLLEGGPSSGAPPPGGSG-NH2 [Example 64],626 nM,0.309 nM,4.08 nM,4.94 nM,397 nM,24.9 nM
H-Y[Aib]QGTFTSDFS[Orn][αMeL]LDKK([AEEA-γGlu-C18 diacid])AQ[Aib]AFIEYLLEGGPSSGAPPPGG[4Pal]-NH2 [Example 261],520 nM,0.29 nM,3.12 nM,5.49 nM,383 nM,38.4 nM
